# Measured values from patent US10537535B2, “Histone deacetylase inhibitors” (The Regents of the University of California, priority 2015, dated 2020).
# Legend:
# pGMR-HTTQ120 flies = settings: orally-administered, previous studies; cited from earlier work
# Gr63a = assay: Whole mount RNA in situ of adult Drosophila antenna Gr63a; format: in vivo; settings: 5 days; odor 1 1% on filter paper, sodium butyrate 10 mM fed; vs untreated or mock
# Method: For five days, Drosophila were exposed to 1% diacetyl (odor 1) on filter paper; fed known HDAC inhibitor sodium butyrate (Na-but; 10 mM); or fed known HDAC inhibitor valproic acid (10 mM).
# [1] = test system: gene expression in the antenna of Drosophila melanogaster; assay: RNA-seq transcriptome analysis of Drosophila antennae after exposure or feeding; format: in vivo; settings: 5 days; diacetyl 1% headspace, SB/VA 10 mM in food; vs control
# Description: In order to examine the physiological effects of long-term exposure to an odorant, flies were maintained in vials with circulating volatiles from headspace of a low concentration (1% in paraffin oil) of the odorant diacetyl, which acts on a number of different receptor pathways in Drosophila. In a similar manner to previous odor-exposure studies, flies were exposed to diacetyl for 5 days and performed an RNA-seq analysis of the antennae, which are known odor-detecting organs. The transcriptome was compared with a control group of age-matched flies that were exposed to the headspace of the solvent paraffin oil (PO, FIG. 3A).
# Flies were exposed to diacetyl (2,3-Butanedione, B85307, Sigma-Aldrich, St. Louis, Mo.) by placing them in vials in a cylindrical closed container (112 mm diameter×151 mm height) along with an odor-containing glass vial. The odorant was dissolved in 10 mL paraffin oil at 1% dilution. For a given exposure protocol, two groups of flies were prepared: those exposed to 1% diacetyl headspace and those exposed to paraffin oil headspace alone (control flies). Adult male flies aged 1 d were transferred to fly vials containing fresh medium, and put into the container with the odor vial. At the end of the fifth day of exposure, flies were collected, and their antennae were dissected for RNA extraction. All treatments and experiments were performed at room temperature. For the recovery experiment, flies were transferred again to the container containing a glass vial of paraffin oil after 5 days of diacetyl exposure. At the end of the fifth day of recovery, flies were collected, and their antennae were dissected for RNA extraction.
# Sodium butyrate (B5887, Sigma-Aldrich) or valproic acid (P4543, Sigma-Aldrich) were dissolved in normal fly food medium at the final concentration of 10 mM. Three groups of flies were prepared: those treated with one of the HDAC inhibitors and those without HDAC inhibitor treatment (control flies). Adult flies aged 1 d were transferred to fly vials containing medium with or without a HDAC inhibitor. At the end of the fifth day of treatment, flies were collected, and their antennae were dissected for RNA extraction. All treatments and experiments were performed at room temperature.
# The second and third antennal segments from 40-60 male flies after treatment were carefully hand-dissected from the head, collected in 1.5 ml microfuge tubes kept cold in liquid nitrogen. Antennae were mechanically crushed with disposable RNAse-free plastic pestles, and total RNA was isolated using a Trizol-based protocol. cDNA libraries were prepared from total RNA (300-1000 ng/sample) using the Illumina TruSeq RNA Library Preparation Kit (Illumina Catalog #RS-122-2001). Samples were submitted to the UCR IIGB sequencing core for high-throughput sequencing using the Illumina HiSeq2500 platform. Raw reads were aligned to the Drosophila melanogaster reference genome (dmel-all-chromosome-r5.48.fasta) with Tophat2, and a count table of reads overlapping with exonic regions of genes was generated by the UCR bioinformatics core. The numbers of biological replicates are: 2, day 5 paraffin oil; 1, day 5 diacetyl; 2, day 5 mock; 2, day 5 sodium butyrate; 2, day 5 valproic acid; 2, day 10 paraffin oil recovery; 2, day 10 diacetyl recovery.
# The read count table for all the genes were then imported into R and a statistical analysis of differential gene expression using the DESeq package (1.22.0) was performed. […] The gene list analysis was performed using the GO Term Mapper (http://go.princeton.edu/) with Generic GO slim datasets, and the Statistical overrepresentation test was performed using the PANTHER classification (http://www.pantherdb.org/) system with GO complete datasets.
# This example investigates the overlap among genes modulated by diacetyl as compared to sodium butyrate and valproic acid, which are known HDAC inhibitors. […]
SMILES,photoreceptor degeneration in Huntington's model Drosophila (pGMR-HTTQ120 flies),Gr63a expression in antenna (RNA in situ) (Gr63a),number of differentially-expressed genes in antennal transcriptome [1] [genes],number of genes down-regulated >2-fold [1] [genes],number of genes up-regulated >2-fold [1] [genes]
"O=C(CCCCCCC(=O)Nc1ccccc1)NO [SAHA, suberoylanilide hydroxamic acid]",significantly reduce photoreceptor degeneration,,,,
"CCCC(=O)[O-].[Na+] [sodium butyrate, Sodium butyrate, reference compound]",significantly reduce photoreceptor degeneration,over-expression,558,366,192
"CCCC(CCC)C(=O)O [valproic acid, reference compound]",,,940,772,168
